Reference: patent publication USRE50977E1, “Methods for production of platelets from pluripotent stem cells and compositions thereof” (Astellas Institute for Regenerative Medicine, priority 2012, dated 2026)

Legend:
GATA1 gene expression = assay: Q-PCR of GATA1 in MKPs treated with iBET151; type: cell-based, human; settings: 0.1 and 0.25 μM
Procedure: (§1) As also described above in Example 10, we therefore determined whether suppression of c-myc expression would enhance MK lineage differentiation/expansion and simultaneously prohibit myeloid and other lineage differentiation/expansion. MKP Day 6+3 cultures were treated with non-cytotoxic doses of a c-myc inhibitor, iBET151 (0.1 and 0.25 μM) for 24 hours and then harvested for analysis. […] CD14+ myeloid cells were decreased from about 12% in control cultures to less than 5% and 3% in cultures treated with iBET151 at 0.1 and 0.25 μM, respectively.

[1] = system: cells undergoing in vitro megakaryopoiesis; assay: iBET151 treatment of MKP Day 6+3 cultures; type: cell-based, human; settings: for increase of MKP outputs vs untreated controls: 24 hours; for CD14+ myeloid cells: D6+3 to D6+4, control about 12%; for number/formation of CD14+ myeloid cells: 0.1 and 0.25 μM
Procedure: To promote early MK progenitor production, cells were cultured in MK-Specific Progenitor Expansion medium (EXP-M) containing STEMdiff APEL Medium+TPO (25 ng/ml), SCF (25 ng/ml), Flt-3 ligand (25 ng/ml), IL-3 (10 ng/ml), IL-6 (10 ng/ml) and heparin (5 U/ml) for up to 7 days. Non-adherent MK Progenitors (MKPs) were constantly released into the medium and harvested for 4-5 consecutive days in EXP-M. Daily harvests were cryo-preserved in animal protein-free defined cryopreservation CryoStor™ medium. Samples of MKPs were also subjected to flow cytometry for analysis of CD41a, CD42b, CD31, CD34, CD43, CD13, CD235a, and CD14 cell surface expression.
as §1

[2] = system: human and murine MLL-fusion leukemic cell lines; settings: induction of early cell cycle arrest and apoptosis; cited from earlier work
c-myc gene expression = assay: Q-PCR of MYC in MKPs treated with iBET151; type: cell-based, human; settings: 0.1 and 0.25 μM
Procedure: as §1

[3] = system: iPS derived megakaryocytes; assay: Platelet formation in static culture with MMP inhibitors; type: cell-based, human; settings: for protection of platelets (CD42b shedding) compared with GM6001: comparative study of specific MMP inhibitors
Procedure: The peak of platelet production is determined by measuring platelet content in the culture, for example on a daily basis for several days. It is typically 4-7 days after the beginning of the MLP differentiation culture period, although it may be longer or it may be shifted. To induce MK maturation and platelet formation, freshly collected or thawed MKPs were cultured in MK maturation medium (MK-M) containing […]+TPO, SCF, IL-6 and […] Megakaryocyte Expansion Supplement) and heparin (5 U/ml) in ultralow attachment plates (Corning). 5 μM of Y-27632 was added for the first 3 days of culture, and cells were incubated in 7% CO2 at 39° C. Cell morphology and density were monitored daily and fresh medium was added to maintain 10^6 cells/ml for the first 4 days. The maturation of MKs from MKPs was monitored using flow cytometric analysis of CD41a, CD42b, and CD235a. Once pro-platelet morphology was observed, medium samples were taken daily to determine platelet yield using CD41a/CD42b double staining by flow cytometric analysis. Platelets were collected for 3-5 consecutive days during the peak of production. To extract platelets, large MKs were removed first using low speed centrifugation (50×g for 10 min), and proplatelets and small MKs were removed by further 10 min centrifugation at 300×g. The iPS-platelets in the supernatants were collected using higher g force (1000-2500×g) in the presence of PGE1 (1 μM). The collected iPS-platelet pellets were then subjected to further purification using a BSA gradient centrifugation as described previously (Robert et al., 2012). Briefly, iPS-platelet pellets were re-suspended with 1× CGS buffer. Platelets were applied in the buffer on top of a BSA gradient with BSA concentration of (weight/volume) of 12, 10, 7, 5 and 2%. The sample was centrifuged at 82×g for 15 min with no break, then the platelet-rich fraction was collected. iPS-platelets purified from BSA gradient were stored or transported at room temperature in MK-M for further analyses.

MKs derived from HA-iPS = assay: Platelet generation under constant shear force in microfluidic device, HA-iPS derived MKs; type: cell-based, human
Procedure: Matured MKs, derived from HA-iPS and MA09 hES lines, were used. Equal numbers of MKs suspended in MK-specific medium were loaded into a microfluidic device in the presence or absence of 20 μM MMP inhibitor GM6001. Constant shear force was applied to the MKs throughout the culture period. MK-medium downstream of MKs was collected at 30 minute intervals for a period of 6 hours. Platelet number and purity (i.e., percentage of total cells that are CD41a^+CD42b^+) in the collected media were measured using flow cytometer.

[4] = constant shear force, 20 μM added at beginning of culture, vs DMSO

Compound: COc1cc2c(cc1-c1c(C)noc1C)ncc1[nH]c(=O)n([C@H](C)c3ccccn3)c12 [iBET151]
- GATA1 mRNA expression (GATA1 gene expression): up-regulation
- GATA1 mRNA expression (GATA1 gene expression; listed as i-BET-151): up-regulated
- increase of MKP outputs vs untreated controls ([1]; 0.1 μM): ≈ 2 fold
- CD14+ myeloid cells ([1]; 0.1 μM): less than 5%
- increase of MKP outputs vs untreated controls ([1]; 0.25 μM): ~4 fold
- CD14+ myeloid cells ([1]; 0.25 μM): < 3%
- number/formation of CD14+ myeloid cells [1]: inhibited
- number/formation of CD14+ myeloid cells ([1]; listed as i-BET-151): dose-dependent decrease
- apoptosis ([1]; high dose): massive apoptosis
- numbers of MK progenitors ([1]; lower doses, micromolar or submicromolar range): increased numbers of MK progenitors
- efficacy against leukemic cell lines [2]: profound efficacy
- c-myc (MYC) mRNA expression (c-myc gene expression): dose-dependent downregulation
- c-myc (MYC) mRNA expression (c-myc gene expression; listed as i-BET-151): dose-dependent inhibition

Compound: COc1ccc(S(=O)(=O)N2Cc3ccccc3C[C@@H]2C(=O)NO)cc1 [MMP8-I, (3R)-(+)-[2-(4-Methoxybenzenesulfonyl)-1,2,3,4-tetrahydroisoquinoline-3-hydroxamate]]
- total number of CD41a+CD42b+ platelets, increase vs control ([3]; MK culture): ~ 46%
- protection of platelets (CD42b shedding) compared with GM6001 [3]: superior shedding protection than GM
- protection of platelets (CD42b shedding) compared with GM6001 ([3]; listed as MMP8 inhibitor): more potency than GM6001
- CD41a+CD42b+ platelets produced as compared to GM6001 ([3]; static culture): Significantly more
- purity gain over GM6001-treated cultures ([3]; static culture): approximately 10%
- purity of iPS-derived platelets ([3]; static culture, added at the peak of platelet production, control 43.7%): 65.5%

Compound: CNC(=O)[C@H](Cc1c[nH]c2ccccc12)NC(=O)[C@@H](CC(=O)NO)CC(C)C [GM6001]
- CD41b+/CD42b+ platelets ([3]; added in MK culture, control 45%): 59%
- platelet purity (percentage CD41a+CD42b+) (MKs derived from HA-iPS; [4]): significantly improved
- platelet yield (MKs derived from HA-iPS; [4]): significantly improved
- platelet numbers as a function of time (MKs derived from HA-iPS; shear force culture, FIG. 23): significantly more platelets were generated
